Residues, ends and D or L forms follow the SMILES beside them.
Assays:
Sprague Dawley rats = test: Example 49: progression of tissue damage following a burn; details: rat, in vivo
Procedure: Sprague Dawley rats will be randomized into the following groups; sham-burn (SB), burn with saline treatment (B), burn with peptide conjugate-treatment (BP), burn with aromatic-cationic peptides (BP2), burn with SPN10(s) (BP3), and burn with SPN10(s)+aromatic-cationic peptides (BP4). Band BP, BP2, BP3 and BP4 animals will receive a 30% total body surface area full thickness burns by immersing the dorsal body into 100° C. water for 12 seconds with immediate fluid resuscitation. […] Wound re-epithelialization, contraction, and depth will be assessed via gross morphology and histologically over a period of 21 days. […]
Apoptosis of hair follicles of the skin will be measured using TUNEL labeling and activated caspase-3 immunostaining using skin samples obtained between 0 and 48 hours post-burn. Quantification of TUNEL and caspase-3 staining will be done on digitally acquired images at high power. The number of positive cells per high power field will be determined, and compared among the groups.
[…] mapping will be performed using Doppler imaging to assess wound blood flow. Two hours post-burn, the dorsum of the animal will be imaged on a scanning laser Doppler apparatus to quantify the superficial blood flow distribution in the skin within and outside of the burn area. For […] mapping, 100 male Sprague-Dawley rats will be used. […]

[1] = test system: human retinal epithelial cells (HREC); test: Example 55: high glucose-induced injury; type: cell-based
Procedure: Methods of HREC culture useful in the studies of the present technology are known. See generally, Li, et al., Clin. Ophthal. Res. 23:20-2 (2005); Premanand, et al., Invest. Ophthalmol. Vis. Sci. 47:2179-84 (2006). Briefly, HREC cells will be cultured under one of these conditions: 1) normal control; 2) 30 mM glucose; 3) 30 mM glucose+peptide conjugates; 4) 30 mM glucose+an aromatic-cationic peptide; 5) 30 mM glucose+SPN10; 6) 30 mM glucose+SPN10+aromatic-cationic peptides. Survival of HRECs in high glucose co-treated with various concentrations of peptide conjugates (10 nM, 100 nM, 1 μM, 10 μM) will be measured by flow cytometry using Annexin V. See generally, Koopman, et al., Blood 84:1415 (1994); Homburg, et al., Blood X5: 532 (1995); Vermes, et al. J. Immunol. Meth. 184:39 (1995); Fadok, et al., J. Immunol. 148:2207 (1992).
The survival of HRECs in high glucose co-treated with peptide conjugates, aromatic-cationic peptides, or SPN10(s) with or without aromatic-cationic peptides will be tested at 24 hours and 48 hours.
It is expected that glucose (30 mmol/L) will induce cytochrome c release from the mitochondria of HRECs. Fixed HRECs will be immunolabeled with a cytochrome c antibody and a mitochondrial specific protein antibody (HSP60).

N=C(N)NCCC[C@H](NC(=O)[C@@H](N)Cc1c[nH]c2ccccc12)C(=O)N[C@@H](Cc1c[nH]c2ccccc12)C(=O)N[C@@H](CCCCN)C(N)=O [SPN10, H-L-Trp-L-Arg-L-Trp-L-Lys-NH2] (H-WRWK-NH2)
burn-induced apoptosis and blood flow (Sprague Dawley rats): reduce burn-induced apoptosis and blood flow
wound healing and progression of burn injuries (Sprague Dawley rats): accelerate wound healing and attenuate the progression of burn injuries
production of ROS ([1]; 30 mM glucose): reduce the production of ROS
survival of HRECs in high glucose (Annexin V) ([1]; 30 mM glucose, 24 hours and 48 hours): significantly improved
glucose-induced release of cytochrome c from mitochondria to cytoplasm ([1]; 30 mmol/L glucose, 24 or 48 hours): prevent or attenuate this effect
loss of mitochondrial membrane potential by high glucose (TMRM) ([1]; 24 or 48 hours): prevent or attenuate this effect

Reference: patent US20240108740A1, “THERAPEUTIC COMPOSITIONS INCLUDING SPN10 AND USES THEREOF” (Stealth BioTherapeutics Inc., priority 2022, published 2024)
